Laboratory results from patent US10050214B2, “Near-ultraviolet stimulated light-emitting compound and production method for same” (NANO CMS CO., LTD., priority 2014, dated 2018).

How the values were obtained:
Type in all cases: physicochemical
[1] = Residual fluorescent intensity after artificial light exposure (ASTM G 154-06 Cycle 1)
Experimental: The obtained quinazolinone compound was irradiated with near-UV light in the wavelength of 365 nm, and the intensity of discharged fluorescence was measured. The fluorescent intensity was measured using a fluorescence spectrometer (DARSA-5000, PSI Co., Ltd.), under the condition of 365 nm stimulation wavelength, cumulative average of five-time measurements, and 1024×128 CCD sensor shape. In addition, measurement of residual fluorescent intensity after artificial light exposure was repeated identically according to ASTM G 154-06 Cycle 1 standard.

[2] = Solubility in organic solvents (eight product items); details: for Solubility, 2% Sodium Hydroxide (Caustic Soda) Solution: 2% Sodium Hydroxide solution; for solubility in organic solvents (in words): summary of TABLE 3
Experimental: (§1) Further, the melting point was measured using the melting point measuring instrument (M5000, KRÜSS GmbH), by assuming that the phase change is at the point where the change in transmissivity reaches 20%. Solubility in organic solvents was measured with respect to eight product items.

[3] = Chemical resistance and solvent resistance tests on printed material; details: summary of TABLE 4; printed material with 10% compound
Experimental: (§2) In addition, compositions respectively containing 10% compounds of embodiments 6 and 11 were sealed on a non-florescent paper, using a grinder and an offset plate printing press (HFT-225, HONGFAT machinery manufacturing Co., Ltd.). Chemical resistance tests and solvent resistance tests were performed on the printed material for 30 minutes at 23° C. with respect to each of nine product items. Furthermore, grades with reference to the standard and remaining fluorescence intensities were measured by irradiating the near-ultraviolet light of 365 nm wavelength, using a weatherability tester (QUV, Q-LAB Corporation), according to ASTM G154-06 Cycle No. 1 standard (except for the condensation conditions).

[4] = Weatherability test (QUV tester, ASTM G154-06 Cycle No. 1); details: in words
Experimental: as §2

[5] = Thermal stability (melting point measuring instrument); details: summary of TABLE 3
Experimental: as §1

Compound: O=c1[nH]c(-c2cc(Cl)ccc2O)nc2ccc(Cl)cc12 [Embodiment 5, 6-choloro-2-(5-chloro-2-hydroxyphenyl)quinazoline-4(3H)-on]
- The remaining fluorescence intensity (after artificial light exposure) Coating (10%) [1]: 80%

Compound: O=c1[nH]c(-c2ccc(Cl)cc2O)nc2ccc(Cl)cc12 [Embodiment 11, 6-chloro-2-(4-chloro-2-hydroxyphenyl)quinazoline-4(3H)-on]
- The remaining fluorescence intensity (after artificial light exposure) Coating (10%) [1]: 70%
- Solubility, 2% Sodium Hydroxide (Caustic Soda) Solution [2]: Resolved
- solubility in organic solvents (in words) [2]: low
- solvent resistance (in words) [3]: high solvent resistance
- light fastness grade and remaining fluorescence intensity compared with conventional commercial products [4]: higher light fastness grade and remaining fluorescence intensity than those of conventional commercial products
- thermal stability (in words) [5]: high

Compound: O=c1[nH]c(-c2cc(F)ccc2O)nc2ccccc12 [Embodiment 13, 2-(5-fluoro-2-hyroxyphenyl)quinazoline-4(3H)-on]
- The remaining fluorescence intensity (after artificial light exposure) Coating (10%) [1]: 65%

Compound: O=c1[nH]c(-c2ccc(Cl)cc2O)nc2ccccc12 [Embodiment 10, 2-(4-chloro-2-hydroxyphenyl)quinazoline-4(3H)-on]
- The remaining fluorescence intensity (after artificial light exposure) Coating (10%) [1]: 60%

Compound: O=c1[nH]c(-c2cc(Cl)ccc2O)nc2cc(Cl)ccc12 [Embodiment 6, 7-chloro-2-(5-chloro-2-hydroxyphenyl)quinazoline-4(3H)-on]
- The remaining fluorescence intensity (after artificial light exposure) Coating (10%) [1]: 70%
- Solubility, 2% Sodium Hydroxide (Caustic Soda) Solution [2]: Resolved
- solubility in organic solvents (in words) [2]: low
- solvent resistance (in words) [3]: high solvent resistance
- light fastness grade and remaining fluorescence intensity compared with conventional commercial products [4]: higher light fastness grade and remaining fluorescence intensity than those of conventional commercial products
- thermal stability (in words) [5]: high

Compound: O=c1[nH]c(-c2cc(Cl)ccc2O)nc2ccccc12 [Embodiment 4, 2-(5-chloro-2-hydroxyphenyl)quinazoline-4(3H)-on]
- The remaining fluorescence intensity (after artificial light exposure) Coating (10%) [1]: 65%

Compound: O=c1[nH]c(-c2c(O)cccc2Cl)nc2ccccc12 [Embodiment 16, 2-(2-chloro-6-hyrdoxyphenyl)quinazoline-4(3H)-on]
- The remaining fluorescence intensity (after artificial light exposure) Coating (10%) [1]: 60%

Compound: O=c1[nH]c(-c2ccc(Cl)cc2O)nc2cc(Cl)ccc12 [Embodiment 12, 7-chloro-2-(4-chloro-2-hydroxyphenyl)quinazoline-4(3H)-on]
- The remaining fluorescence intensity (after artificial light exposure) Coating (10%) [1]: 40%

Compound: COc1ccc(-c2nc3ccccc3c(=O)[nH]2)c(O)c1 [Embodiment 7, 2-(2-hydroxy-4-methoxyphenyl)quinazoline-4-(3H)-on]
- The remaining fluorescence intensity (after artificial light exposure) Coating (10%) [1]: 40%

Compound: COc1ccc(-c2nc3ccc(Cl)cc3c(=O)[nH]2)c(O)c1 [Embodiment 8, 6-chloro-2-(2-hydroxy-4-methoxyphenyl)quinazoline-4(3H)-on]
- The remaining fluorescence intensity (after artificial light exposure) Coating (10%) [1]: 45%

Compound: O=c1[nH]c(-c2cccc(Cl)c2O)nc2ccccc12 [Embodiment 17, 2-(3-choloro-2-hydroxyphenyl)quinazoline-4(3H)-on]
- The remaining fluorescence intensity (after artificial light exposure) Coating (10%) [1]: 60%
